These results are taken from the OPERA property sets (Mansouri et al. 2018).

Peptide text beside a SMILES is read from it.

By logP is commonly meant the decadic logarithm of the partition coefficient of the neutral form, usually between octanol and water. A lower logP goes with lower lipophilicity.

As to `CC(=O)Nc1ccc(O)cc1C`, the logP came out at 0.17.
The molecule `NC(=O)Oc1ccccc1` displayed a logP of 1.08.
Under `Nc1ccc(C(=O)O)c(Br)c1` stands 1.49; under `CCCNCc1cccnc1`, 0.9; under `CCC(=O)O`, 0.33.
The value for `O=C1C=C(Br)C(=O)c2ccccc21` was 2.44.
On to `COc1ccc(OCC(=O)NNC(C)C)cc1`, for which the logP is 1.21.
Regarding `C/C=N/O`, the logP is -0.13.
Under `CCOc1ccc([N+](=O)[O-])cc1` stands 2.53; under `O=C(O)CBr`, 0.41.
The value for `Nc1nnc(Cc2ccccc2)o1` was 0.95.
In turn, `c1ccc(SSc2ccccc2)cc1` showed a lipophilicity (logP) of 4.41.
The molecule `COCOC` showed a logP of 0.
The value for `NC(=O)Cn1ccnc1[N+](=O)[O-]` was -1.22; that for `N#CC(=Cc1ccccc1)C(N)=O` was 1.56.
The value for `O=C(O)c1ccc2c(c1)OCCOCCOCCOCCOCCO2` was -0.28; that for `CN(C)C(=O)OCc1ccc(I)cc1` was 3.32; that for `O=C(O)Cc1c(Cl)ccc(Cl)c1Cl` was 3.2.
Molecule `O=c1cncc[nH]1` yielded a logP of -1.49.
`CN(C)C(N(C)C)=S(I)c1ccccc1C(=O)O` (centres undefined) yielded a logP of -1.4.
Under `CNC(=O)c1[nH]nc(C)c1[N+](=O)[O-]` stands -0.23; under `Brc1ccc(-c2ccc(Br)cc2)cc1`, 5.72; under `CNC(=O)C=Cc1ccccc1`, 1.81.
Under `NS(=O)(=O)c1ccc(SCCO)s1` stands 0.38; under `O=C1C=CCO1`, -0.6.
Under `O=C(NC(CO)C(O)c1ccc([N+](=O)[O-])cc1)C(Cl)(Cl)Cl` (centres undefined) stands 1.97.
Regarding `CCOC(=O)CC(=O)c1ccccc1`, the lipophilicity (logP) was found to be 1.87. The logP values of the last two molecules are within 0.2 log units of each other.
On to `COC(=O)c1ccc(-c2ncc([N+](=O)[O-])n2C)cc1`, for which the logP came to 1.63.
`COC(=O)CCCCC(=O)OC` had a logP of 1.03.
Under `Cc1ccc(C)[nH]1` stands 1.47; under `O=C(O)C=CC(=O)c1ccccc1`, 1.53.
`O=C1OC(=O)c2ccccc21` yielded a logP of 1.6.
As to `CN1CCCCC1`, the logP worked out at 1.3.
The value for `NC(=O)c1[nH]cnc1N` was -1.1; that for `NC(Cc1c[nH]c2cccc(F)c12)C(=O)O` (centres undefined) was -1.07.
For the molecule `CCCOCCC`, the logP came out at 2.03.
Consider `CN1CCc2cccc3c2[C@H]1Cc1ccc(O)c(O)c1-3`, for which the logP amounted to 2.3.
The molecule `CCOC(=O)C(=Cc1ccccc1F)C(=O)OCC` displayed a logP of 3.04.
`O=C(Nc1ccccc1)NS(=O)(=O)c1ccc(Cl)cc1` yielded a logP of 3.61.
As for `C[Si](C)(C)c1ccc(O)cc1`, the logP amounted to 3.84.
`CCCS` came in with a log partition coefficient (logP) of 1.81.
Under `c1ccc2c(c1)cnc1ccccc12` stands 3.48.
The value for `NNC(=O)c1ccccc1` was 0.19; that for `ClC1CC(Cl)C(Cl)C(Cl)C1Cl` (centres undefined) was 3.53.
Under `NNc1ccc([N+](=O)[O-])cc1` stands 1.41; under `ClC(Cl)C(c1ccccc1)c1ccccc1`, 4.51; under `O=[N+]([O-])c1ccc(F)cc1`, 1.8.
Molecule `c1ccc2c(c1)CCC2` had a logP of 3.18.
Under `COc1c(Cl)ccc(Cl)c1C(=O)O` stands 2.21.
Under `C[C@@H](O)c1ccccc1` stands 1.42; under `CCC1(C(C)CC(C)O)C(=O)NC(=O)NC1=O` (centres undefined), 0.35; under `NC(=O)c1cnc2ccccc2c1`, 1.06.
Under `COC1CC(OC2CCC3(C)C(CCC4C3CCC3(C)C(C5=CC(=O)OC5)C(OC(C)=O)CC43O)C2)OC(C)C1O` (centres undefined) stands 2.53.
`COc1cc2c(c(OC)c1OC)-c1ccc(O)c(=O)cc1[C@@H](NC(=O)C(F)(F)F)CC2` showed a logP of 1.82.
The value for `O=C(Cn1cnc([N+](=O)[O-])n1)N1CCOCC1` was -0.96; that for `CC(=O)N[C@@H](C)C(=O)N[C@@H](CC(C)C)C(N)=O` (Ac-Ala-Leu-NH2) was -0.54; that for `CN(C)C(=O)Nc1cccc(Cl)c1` was 2.
Under `On1nc2ccccc2n1` stands 0.69; under `NS(=O)(=O)c1cc2c(cc1Br)NCNS2(=O)=O`, 0.08; under `O=C(O)C(Cl)(Cl)Cl`, 1.33.
The molecule `CCC(C)(C)C(=O)OC1CC(C)C=C2C=CC(C)C(CCC(O)CC(O)CC(=O)O)C21` (centres undefined) registered a logP of 4.47.
The value for `CNC(=NC#N)NCCSCc1ncccc1OC` was 0.97; that for `Cc1nccnc1CC(C)C` was 1.96.
Under `CNC(=O)Oc1cc(C)cc(C)c1` stands 2.23; under `C=CNP(=O)(NC=C)NC(=O)c1ccc(OC)cc1`, 1.08.
As to `Cc1cccc(OC(=O)N(C)C)c1`, the logP was found to be 2.05.
Under `NC1CC1` stands 0.07.
The value for `CCCNCCC` was 1.67; that for `CON(C)C(=O)Nc1ccc(OCCc2ccc(C)cc2)cc1` was 3.81.
The value for `OCC(F)(F)C(F)(F)F` was 1.23; that for `CCCCC(C)=O` was 1.38; that for `O=C1C=CC(=O)C(Cl)=C1` was 0.84.
For the molecule `CC#CC#CC`, the logP turned out to be 2.24.
Under `COc1ccc(S(N)(=O)=O)cc1` stands 0.47.
The molecule `NC(=O)c1ccc(Cl)cc1` had a logP of 1.55.
`CC(C)(C)c1ccccc1` displayed a logP of 4.11.
As to `Nc1cc[nH]c(=O)n1`, the logP was -1.73.
The value for `CCC1OC(=O)C(C)C(OC2CC(C)(OC)C(O)C(C)O2)C(C)C(OC2OC(C)CC(N(C)C)C2O)C(C)(O)CC(C)C(=O)C(C)C(O)C1C` (centres undefined) was 3.12.
Turning to `O=C1C=CC(=O)c2c(O)cccc21`, the log partition coefficient (logP) is 1.92.
Under `COCCO` stands -0.77.
`Nc1ccc(I)cc1` had a logP of 2.34.
The value for `NC(=O)c1cc(N2CC2)c([N+](=O)[O-])cc1[N+](=O)[O-]` was -0.02.
Molecule `CCN(CC)Cc1cccnc1` came in with a logP of 1.01.
On to `C[C@]12CC[C@H](O)C[C@H]1CC[C@@H]1[C@@H]2C[C@@H](O)[C@]2(C)[C@@H](C3=CC(=O)OC3)CC[C@]12O`, for which the logP is 1.1.
As for `CCCCC(O)CC` (centres undefined), the logP turned out to be 2.24.
For the molecule `CC(=O)c1ccc(N(C)C)cc1`, the logP turned out to be 2.1.
`ClCCOCCCl`: the logP came out at 1.29.
Regarding `c1ccc2nccnc2c1`, the logP amounted to 1.32.
The molecule `OCC=Cc1ccccc1` came in with a logP of 1.95.
`Cc1cccc(Cl)c1NC1=NCCN1` had a logP of 1.71.
The value for `CC(=O)Oc1cccc(C)c1` was 2.09; that for `NC(=O)OCc1ccccc1` was 1.2.
`CN(C)C(N(C)C)=S(I)c1ccccc1Cl` (centres undefined) had a logP of -0.19.
The value for `O=[N+]([O-])c1ccc(Cl)c(Cl)c1` was 3.12.
The value for `Clc1ccc2ncccc2c1` was 2.73.
The value for `CCOP(=S)(OCC)Oc1ccc([N+](=O)[O-])cc1` was 3.83; that for `CCOc1cccc(OC(=O)NC)c1` was 1.75; that for `NC(=O)Nc1ccc(Br)cc1` was 1.98.
The molecule `Cc1[nH]cnc1CSCCNC1=NS(=O)(=O)CCN1` gave a logP of -0.74.
The value for `CN(C)c1cccnc1` was 1.41; that for `CNC(=O)c1ccccc1C(=O)c1ccccc1` was 2.09; that for `CN1C(=O)CN=C(c2ccccc2F)c2cc(Cl)ccc21` was 2.75.
The value for `O=Cc1ccncc1` was 0.43.
In the case of `Cc1cccc2cc[nH]c12`, the logP is 2.56.
The value for `CCOP(=O)(Cc1ccc(-c2nc3ccccc3s2)cc1)N1CCCC1=O` (centres undefined) was 3.
The value for `CCCCCCCCOc1cccc(NC(=O)OCCN2CCCCC2)c1` was 5.82; that for `O=Cc1ccc([N+](=O)[O-])cc1` was 1.56.
Consider `CC1(c2ccccc2)NC(=O)NC1=O` (centres undefined), for which the logP was 1.02.
The value for `NN1CCCCC1` was -0.28; that for `CN(C)c1ccc([N+](=O)[O-])cc1` was 2.27; that for `CC(C)Oc1ccc(CC#N)cc1` was 2.53.
`CC(=O)c1ccccc1NCC#N`: the logP was found to be 1.58.
The value for `CC1(C)N=C(N)N=C(N)N1c1ccc(Br)cc1` was 1.09.
As to `O=NN1CCCC(O)C1` (centres undefined), the logP was -0.47.
Regarding `CCCN(CCC)CC(=O)OCn1ncc2c(=O)[nH]cnc21`, the logP is 1.27.
Under `NC(=O)C(=Cc1ccccc1)C(N)=O` stands -0.13; under `c1ccc(N=Nc2ccccc2)cc1`, 3.82.
Turning to `NC(=O)CCN1CCc2cccc(Cl)c2CC1`, the logP was 1.64.
The value for `CC1=C(O)C(=O)c2ccccc2C1=O` was 1.2; that for `O=C(OC(=O)c1ccccc1)c1ccccc1` was 2.26.
Molecule `O=NN(CCCl)C(=O)NC1C(O)OC(CO)C(O)C1O` (centres undefined) returned a logP of -1.02.
`O=C1OC2(CCCC2)c2ccccc21` had a log partition coefficient (logP) of 2.56.
Under `CCCC(C)(COC(N)=O)COC(N)=O` stands 0.7; under `C[C@@H](N)[C@@H](O)c1ccccc1`, 0.67.
Under `CNCC(F)(F)F` stands 0.55; under `CCOC(=O)OCC`, 1.21; under `Cc1cc(O)ccc1Cl`, 3.1.
Under `Nc1ccc(S(=O)(=O)Nc2cnc3ccccc3n2)cc1` stands 1.68.
In turn, `O=C(O)Cc1ccc(Cl)cc1` displayed a logP of 2.12.
The value for `Cc1ccc(C=NO)cc1` was 2.4.
Under `CN(C)C(N(C)C)=S(I)c1cccc(F)c1` (centres undefined) stands -0.53; under `O=C(OCn1ncc2c(=O)[nH]cnc21)c1ccc(CN2CCOCC2)cc1`, 1.12; under `COP(=S)(OC)Oc1ccc(Cl)cc1C#N`, 3.41.
`CCC(C)c1cccc(C(C)C)c1O` (centres undefined) gave a logP of 3.85.
`CNC(=O)Oc1ccccc1C(C)(C)C` displayed a logP of 2.65.
For the molecule `CCC(C)c1ccc(OCC(=O)O)cc1` (centres undefined), the logP came out at 3.12.
As for `Nc1ccc(S(=O)(=O)Nc2ccccc2)cc1`, the lipophilicity (logP) was 1.55.
The value for `COc1cc(SC)c(OC)cc1CCN` was 1.81; that for `CC(=O)[C@H]1CC[C@H]2[C@@H]3CC=C4C[C@@H](O)CC[C@]4(C)[C@H]3CC[C@]12C` was 4.22.
